Legend:
[1] = tested on: human cord blood CD34+ cells; assay: Bone marrow stem cell (hematopoietic trilineage) colony formation assay; format: cell-based; settings: for Mean Number of Colonies, % of Control, 14 days / Mean Number of Colonies, % of Control, 8 days: normal bone marrow, compound at 40 µM, N = 2; for Mean Number of Colonies, % of Control, 8 days: total colonies at 8 days
Procedure: (§1) Human hematopoietic stem cell trilineage colony formation assays were performed as previously described by us. Briefly, human cord blood CD34+ cells (catalog #: 70008.5) were purchased from StemCell Technology Inc. and seeded at 1 × 10^4 cells per 35 mm dish. Cells were cultured in MethoCult™ Express (StemCell Technologies, Inc. (Vancouver, BC, Canada)) semisolid media, per the manufacturer’s instructions, in the presence of compound or vehicle (for controls). Compounds were added at final concentrations matching those used in the initial growth assay screens. At eight days, colonies (i.e., groups of ≥10 cells) were counted. At fourteen days, individual colonies of erythroid burst-forming units (BFU-E), colony-forming unit granulocyte–macrophage (CFU-GM), and colony-forming unit granulocyte, erythrocyte, monocyte, and megakaryocyte (CFU-GEMM) were identified based on the manufacturers’ morphologic characterization criteria. Assays were run in replicates of N = 2, and some were run in replicates of N = 4, as denoted. The mean number of colonies was then determined and expressed as the percentage of controls. The effect of each compound on inhibiting the growth of cancer cells relative to its toxic effects on normal bone marrow was evaluated. This was carried out by comparing colonies at 8 days for each cancer cell line to that of bone marrow. This information was used to calculate the efficacy ratio, as follows: efficacy ratio = (percent of remaining cancer cell colonies)/(percent of remaining bone marrow colonies). This was performed for all compounds at 40 µM and for selected compounds at 5.7 µM, as denoted. For compounds nominated for second-level screens, bone marrow colony formation assays were also repeated. Compounds were added at final concentrations matching those used in the initial screens.
In parallel with measuring growth inhibition of cancer cell growth, we measured the effect on human hematopoietic stem cells. Hematopoietic stem cells reside in the bone marrow and are the source of mature cells present in blood. Bone marrow is one of the most sensitive organs in the body to drug toxicity, and this is especially so for anticancer drugs, where bone marrow toxicity can approach 100% [78, 79, 80]. Bone marrow toxicity was measured by performing hematopoietic colony formation assays on human CD34+ stem cells. The stem cell nature of this assay permitted the assessment of trilineage colony formation: granulocytic (white blood cells), erythrocytic (red blood cells), and megakaryocytic (platelets), measured by the formation of CFU-GM, BFU-E, and CFU-GEMM colonies, respectively. Two measurements were taken. First, total colonies at eight days were measured, thereby matching the eight-day timeframe of cancer cell colony formation assays. Second, at fourteen days, individual colonies had differentiated, permitting quantification of each lineage.

HT29 = assay: Eight-day colony formation assay, colon cancer HT29; format: cell-based, human; settings: 0.82 µM
Procedure: Initial colony formation screening assays were conducted on all acquired compounds and examined at five different compound concentrations. Those meeting efficacy criteria underwent a second-level screen examining nine different compound concentrations. Eight-day colony formation assays of cancer cells were performed as described by us. Briefly, 0.5–1.0 × 10^3 cells were seeded into each well of a 12-well plate. Twenty-four hours later, the compound was added at the following final concentrations: 0 (DMSO-only control), 0.017, 0.12, 0.82, 5.7, and 40 µM. For each concentration, there were N = 2 replicates, i.e., 2 wells. Eight days later, plates were stained with trypan blue, visualized under light microscopy, and groups of three or more cells were scored as colonies. The mean number of colonies was then determined and expressed as the percentage of controls. […]
In addition to screens, eight-day colony formation assays were conducted for certain experiments, as denoted. […] The IC50 values were calculated using nonlinear regression analysis. […] The IC50 values were determined using the dose–response inhibition function. […]
Human hematopoietic stem cell trilineage colony formation assays were performed as previously described by us. […] At eight days, colonies (i.e., groups of ≥10 cells) were counted. […] The mean number of colonies was then determined and expressed as the percentage of controls. […]

NCI-60 cell lines = assay: NCI-60 cell line screen; format: cell-based, human; settings: 48 h at 10 µM
Procedure: The above findings support the importance of Dxr2 and FolC2 sites, and of Dxr2-017 and FolC2-001 compounds, respectively. The NCI-60 cell line screen evaluates compound growth inhibition and cell toxicity in a highly standardized manner across 60 different cell lines. Dxr2-017 and FolC2-001 were evaluated in this assay (Figure S6). NCI-60 screens evaluate cells treated for 48 h at 10 µM with a given compound. […] Of high interest, in the NCI-60 screen, Dxr2-017 had relatively high activity against melanoma cell lines, inducing cell death in five cell lines ranging from 25% to 65%, and inhibiting growth in four cell lines ranging from 76% to 96%. Its impact on cell death represented the most striking relative difference in response across cell lines.

[2] = tested on: breast, prostate, colon, or lung cancer cell lines; assay: Eight-day colony formation assays, summary across the cancer cell line panel; format: cell-based, human; settings: for efficacy at concentrations below 40 µM (in words): 8-day colony formation
Procedure: Initial colony formation screening assays were conducted on all acquired compounds and examined at five different compound concentrations. Those meeting efficacy criteria underwent a second-level screen examining nine different compound concentrations. Eight-day colony formation assays of cancer cells were performed as described by us. Briefly, 0.5–1.0 × 10^3 cells were seeded into each well of a 12-well plate. Twenty-four hours later, the compound was added at the following final concentrations: 0 (DMSO-only control), 0.017, 0.12, 0.82, 5.7, and 40 µM. For each concentration, there were N = 2 replicates, i.e., 2 wells. Eight days later, plates were stained with trypan blue, visualized under light microscopy, and groups of three or more cells were scored as colonies. The mean number of colonies was then determined and expressed as the percentage of controls. Second-level screens were performed on compounds inhibiting colony formation by greater than 50% at 40 µM in at least two cell lines. Second-level assays used the following final concentrations of compound: 0 (DMSO only), 0.0061, 0.018, 0.05, 0.16, 0.49, 1.48, 4.44, 13.33, and 40 µM. All compounds were stored under desiccated conditions in a sealed container at minus 20 °C upon arrival. One day prior to use, they were dissolved in DMSO, stored at minus 20 °C as stock solutions, thawed just prior to use, and not reused.
as §1
We sought to identify compounds that would inhibit the growth of cancer cells, but that also did so selectively. Inhibition of cancer cell growth is a highly sought after attribute of anticancer agents. This was assessed by measuring the ability of a compound to inhibit cell growth in eight-day colony formation assays and examining concentrations ranging from 0.017 to 40 µM. Breast, colon, lung, and prostate cancer are four of the most common types of cancer in the United States, are major causes of cancer cell death, and were examined. […]

Row | Compound | Mean Number of Colonies, % of Control, 14 days [1] | Mean Number of Colonies, % of Control, 8 days [1] | further results
1 | O=c1[nH]cc(F)c(=O)[nH]1 [Compound 5FU, 5-fluorouracil, reference compound] |  |  | effect on bone marrow colony formation (in words) ([1]; 0.82 µM): no effect on bone marrow; effect on bone marrow colony formation (in words) ([1]; 5.7 µM): profound suppressive effects; hematopoietic colony formation, % of the control ([1]; 5.7 µM, 8 days): 38 % of the control; effect on bone marrow colony formation (in words) ([1]; 40 µM): completely suppressed colony formation; efficacy ratio (cancer cell colonies / bone marrow colonies, 8 days) (HT29): 0.82
2 | Cc1nnsc1C(=O)OCCCn1c(=O)[nH]c2ccccc21 [Dxr2-001] | 93 % of Control | 109 % of Control | 
3 | Cc1[nH]c(=O)[nH]c1C(=O)CCCCC(=O)O [EPSP-023] | 114 % of Control | 94 % of Control | 
4 | c1ccc(CCc2n[nH]c(-c3ccccn3)n2)cc1 [FolC1-031] | 85 % of Control | 80 % of Control | 
5 | O=C(Cn1c(=O)oc2ccccc21)N1CCn2c1nc1ccccc12 [FolC2-001] | 87 % of Control | 108 % of Control | activity in the NCI-60 screen (in words) (NCI-60 cell lines): against H226; efficacy ratio, mean ± SEM over cell lines with ratio below 0.5 ([2]; 40 µM, 8 days): 0.29 ± 0.09; number of cell lines with efficacy ratio below 0.5 ([2]; 40 µM, 8 days): five; efficacy at concentrations below 40 µM (in words) [2]: rapidly dropped off below 40 µM
6 | O=C(CCc1c[nH]c2ccccc12)N1CCSc2ccccc21 [FolC2-005] | 101 % of Control | 105 % of Control | efficacy at concentrations below 40 µM (in words) [2]: A similar phenomenon was observed

Now from value to compound, other results behind:

Row | Mean Number of Colonies, % of Control, 14 days [1] | Mean Number of Colonies, % of Control, 8 days [1] | Compound | further results
7 | 119 % of Control | 93 % of Control | O=C(Nc1nnn[nH]1)c1cc(-c2ccccc2)nc2ccccc12 [PRT-051] | 
8 | 103 % of Control | 117 % of Control | O=C(Cc1n[nH]c(=O)c2ccccc12)Nn1cnc2ccccc21 [TYLT-001] | 
9 | 94 % of Control | 97 % of Control | O=C(COC(=O)c1cccs1)c1ccc2[nH]c(=O)[nH]c2c1 [TYLT-003] | 

From publication PMC11429909, “Protein Structure Inspired Discovery of a Novel Inducer of Anoikis in Human Melanoma” (Cancers, 2024)
